Here are results for 10 compounds from PubChem BioAssay (NCI).

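Method: 48-hour compound exposure of cells in 96-well plates, five concentrations, linear interpolation of endpoints. Definition used: TGI = concentration required for complete inhibition of growth.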 Bounds are passed on as bounds.

Some test systems named below: XF 498 CNS; SK-OV-3 ovarian; DMS 114 small cell lung; MALME-3M melanoma; SNB-75 CNS; DMS 273 small cell lung; KM20L2 colon; SR leukemia; NCI/ADR-RES ovarian.
Assay in all cases: NCI tumour cell line growth inhibition, 48 h

With `CC1(O)CC2C(CC1SCCO)C2(C)C` (stereo not drawn), the TGI with XF 498 CNS, in the test on SK-OV-3 ovarian, in the test with DMS 114 small cell lung, in the test on MALME-3M melanoma, with SNB-75 CNS and in the test with DMS 273 small cell lung was greater than 100 µM each time.
Turning to `C=C1c2c(cc3c(c2O)c(=O)c2ccccc2n3C)OC1(C)C`, the TGI in the test with XF 498 CNS was 57.2 µM; with SK-OV-3 ovarian, 97.2 µM; with DMS 114 small cell lung, greater than 100 µM; in the test on MALME-3M melanoma, greater than 100 µM; with SNB-75 CNS, 42 µM; with DMS 273 small cell lung, greater than 100 µM. In the test with KM20L2 colon, this compound gave a TGI greater than 100 µM.
In the case of `NC(=O)CCC(NCc1c2ccccc2[n+]([O-])c2ccccc12)C(=O)O` (stereo not drawn), the TGI in the test on SK-OV-3 ovarian, in the test with DMS 114 small cell lung, with MALME-3M melanoma, with SNB-75 CNS, in the test on DMS 273 small cell lung and in the test with KM20L2 colon was greater than 100 µM each time.
Turning to `Cc1ccc(C(=O)C(C)N)cc1` (stereo not drawn), the TGI in the test with XF 498 CNS, in the test with SK-OV-3 ovarian, with DMS 114 small cell lung, in the test on MALME-3M melanoma, in the test with SNB-75 CNS and in the test with SR leukemia was greater than 100 µM in each case. The TGI with DMS 273 small cell lung and in the test with KM20L2 colon was greater than 100 µM each time.
Consider `O=C(NO)c1coc2ccccc2c1=O`, for which the TGI in the test on SK-OV-3 ovarian is 31.4 µM; with DMS 114 small cell lung, greater than 100 µM; in the test with MALME-3M melanoma, greater than 100 µM; in the test with SNB-75 CNS, greater than 100 µM; in the test on DMS 273 small cell lung it was greater than 100 µM; in the test with KM20L2 colon it was greater than 100 µM.
With `CC(C)(C)[Si](C)(C)OCCCC#CCO`, the TGI with XF 498 CNS, in the test on SK-OV-3 ovarian, in the test with DMS 114 small cell lung, with MALME-3M melanoma, in the test with SNB-75 CNS and with DMS 273 small cell lung was greater than 100 µM in each case. The TGI in the test on KM20L2 colon was greater than 100 µM.
With `Cc1c(-c2cc3n(n2)C(c2cccs2)C(C#N)=C(c2ccccc2)N3)c(=O)n(-c2ccccc2)n1C` (stereo not drawn), the TGI in the test with XF 498 CNS, in the test with SK-OV-3 ovarian, in the test on DMS 114 small cell lung, in the test with MALME-3M melanoma, in the test on SNB-75 CNS and in the test with NCI/ADR-RES ovarian was greater than 100 µM each time. The TGI in the test with DMS 273 small cell lung is greater than 100 µM; in the test on KM20L2 colon it was greater than 31.6 µM.
Consider `COC(OC)c1cccc2c1C1(O)CCC3(CC21)OCCCCO3` (stereo not drawn), for which the TGI with SK-OV-3 ovarian, with DMS 114 small cell lung, in the test on MALME-3M melanoma, with SNB-75 CNS, with SR leukemia and in the test with DMS 273 small cell lung was greater than 100 µM each time. Moreover, the TGI in the test on KM20L2 colon is greater than 100 µM.
Take `O=P(O)(O)C(CSc1ccccc1)P(=O)(O)O`: the TGI in the test with XF 498 CNS, with SK-OV-3 ovarian, in the test with DMS 114 small cell lung, in the test on MALME-3M melanoma, with SNB-75 CNS and with NCI/ADR-RES ovarian was greater than 100 µM each time. Besides, the TGI in the test with DMS 273 small cell lung and in the test on KM20L2 colon was greater than 100 µM each time.
Take `CC(=O)[O-].CC(=O)[O-].O=C(N/N=C/c1cc(Cl)cc(Cl)c1[OH2+])c1ccncc1.[Co+2]`: the TGI in the test with SK-OV-3 ovarian, with MALME-3M melanoma, in the test with SNB-75 CNS, in the test on SR leukemia and with KM20L2 colon was greater than 100 µM each time.
